Reference: ChEMBL document CHEMBL5724806, “Unraveling interindividual differences and functional consequences of gut microbial metabolism of immunosuppressants” (2024)

Assays:
Format in all cases: ADME
[1] = The drug is tested on the gut metagenome community of A-07 with ENA study accession number: PRJEB31790 for biotransformation under microaerobic condition. The drug concentrations were measured over 7 timepoints collected between 0 and 12 hours of incubation by liquid-chromatography-coupled mass spectrometry (LC–MS); parameters: dose 5 uM, timepoint 0, 0.75, 1.5, 3, 6, 9, 12 hours; conditions: 5 µM
[2] = The drug is tested on Prevotella copri strain: DSM18205 for biotransformation under anaerobic condition. The drug concentrations were measured over 6 timepoints collected between 0 and 12 hours of incubation by liquid-chromatography-coupled mass spectrometry (LC–MS); parameters: dose 5 uM, timepoint 0, 1.5, 3, 6, 9, 12 hours; conditions: segatella copri, 5 µM
[3] = The drug is tested on the gut metagenome community of A-10 with ENA study accession number: PRJEB31790 for biotransformation under microaerobic condition. The drug concentrations were measured over 7 timepoints collected between 0 and 12 hours of incubation by liquid-chromatography-coupled mass spectrometry (LC–MS); parameters: dose 5 uM, timepoint 0, 0.75, 1.5, 3, 6, 9, 12 hours; conditions: 5 µM
[4] = The drug is tested on the gut metagenome community of P-04 with ENA study accession number: PRJEB31790 for biotransformation under anaerobic condition. The drug concentrations were measured over 7 timepoints collected between 0 and 12 hours of incubation by liquid-chromatography-coupled mass spectrometry (LC–MS); parameters: dose 5 uM, timepoint 0, 0.75, 1.5, 3, 6, 9, 12 hours; conditions: 5 µM
[5] = The drug is tested on the gut metagenome community of A-02 with ENA study accession number: PRJEB31790 for biotransformation under anaerobic condition. The drug concentrations were measured over 7 timepoints collected between 0 and 12 hours of incubation by liquid-chromatography-coupled mass spectrometry (LC–MS); parameters: dose 5 uM, timepoint 0, 0.75, 1.5, 3, 6, 9, 12 hours; conditions: 5 µM
[6] = The drug is tested on the gut metagenome community of A-05 with ENA study accession number: PRJEB31790 for biotransformation under anaerobic condition. The drug concentrations were measured over 7 timepoints collected between 0 and 12 hours of incubation by liquid-chromatography-coupled mass spectrometry (LC–MS); parameters: dose 5 uM, timepoint 0, 0.75, 1.5, 3, 6, 9, 12 hours; conditions: 5 µM
[7] = The drug is tested on the gut metagenome community of A-04 with ENA study accession number: PRJEB31790 for biotransformation under anaerobic condition. The drug concentrations were measured over 7 timepoints collected between 0 and 12 hours of incubation by liquid-chromatography-coupled mass spectrometry (LC–MS); parameters: dose 5 uM, timepoint 0, 0.75, 1.5, 3, 6, 9, 12 hours; conditions: 5 µM
[8] = The drug is tested on Bacteroides stercoris strain: HM 1036 for biotransformation under anaerobic condition. The drug concentrations were measured over 6 timepoints collected between 0 and 12 hours of incubation by liquid-chromatography-coupled mass spectrometry (LC–MS); parameters: dose 5 uM, timepoint 0, 1.5, 3, 6, 9, 12 hours; conditions: 5 µM
[9] = The drug is tested on Bacteroides caccae strain: DSM19024 for biotransformation under anaerobic condition. The drug concentrations were measured over 6 timepoints collected between 0 and 12 hours of incubation by liquid-chromatography-coupled mass spectrometry (LC–MS); parameters: dose 5 uM, timepoint 0, 1.5, 3, 6, 9, 12 hours; conditions: 5 µM
[10] = The drug is tested on Akkermansia muciniphila strain: DSM22959 for biotransformation under anaerobic condition. The drug concentrations were measured over 6 timepoints collected between 0 and 12 hours of incubation by liquid-chromatography-coupled mass spectrometry (LC–MS); parameters: dose 5 uM, timepoint 0, 1.5, 3, 6, 9, 12 hours; conditions: 5 µM
[11] = The drug is tested on the gut metagenome community of A-04 with ENA study accession number: PRJEB31790 for biotransformation under microaerobic condition. The drug concentrations were measured over 7 timepoints collected between 0 and 12 hours of incubation by liquid-chromatography-coupled mass spectrometry (LC–MS); parameters: dose 5 uM, timepoint 0, 0.75, 1.5, 3, 6, 9, 12 hours; conditions: 5 µM
[12] = The drug is tested on Lactobacillus fermentum strain: DSM20052 for biotransformation under anaerobic condition. The drug concentrations were measured over 6 timepoints collected between 0 and 12 hours of incubation by liquid-chromatography-coupled mass spectrometry (LC–MS); parameters: dose 5 uM, timepoint 0, 1.5, 3, 6, 9, 12 hours; conditions: limosilactobacillus fermentum, 5 µM
[13] = The drug is tested on Dorea formicigenerans strain: DSM3992 for biotransformation under anaerobic condition. The drug concentrations were measured over 6 timepoints collected between 0 and 12 hours of incubation by liquid-chromatography-coupled mass spectrometry (LC–MS); parameters: dose 5 uM, timepoint 0, 1.5, 3, 6, 9, 12 hours; conditions: 5 µM
[14] = The drug is tested on the gut metagenome community of P-01 with ENA study accession number: PRJEB31790 for biotransformation under anaerobic condition. The drug concentrations were measured over 7 timepoints collected between 0 and 12 hours of incubation by liquid-chromatography-coupled mass spectrometry (LC–MS); parameters: dose 5 uM, timepoint 0, 0.75, 1.5, 3, 6, 9, 12 hours; conditions: 5 µM
[15] = The drug is tested on the gut metagenome community of A-01 with ENA study accession number: PRJEB31790 for biotransformation under microaerobic condition. The drug concentrations were measured over 7 timepoints collected between 0 and 12 hours of incubation by liquid-chromatography-coupled mass spectrometry (LC–MS); parameters: dose 5 uM, timepoint 0, 0.75, 1.5, 3, 6, 9, 12 hours; conditions: 5 µM
[16] = The drug is tested on Gemella morbillorum strain: DSM20572 for biotransformation under anaerobic condition. The drug concentrations were measured over 6 timepoints collected between 0 and 12 hours of incubation by liquid-chromatography-coupled mass spectrometry (LC–MS); parameters: dose 5 uM, timepoint 0, 1.5, 3, 6, 9, 12 hours; conditions: 5 µM
[17] = The drug is tested on Gemella haemolysans strain: DSM107751 for biotransformation under microaerobic condition. The drug concentrations were measured over 6 timepoints collected between 0 and 12 hours of incubation by liquid-chromatography-coupled mass spectrometry (LC–MS); parameters: dose 5 uM, timepoint 0, 1.5, 3, 6, 9, 12 hours; conditions: 5 µM
[18] = The drug is tested on Capnocytophaga ochracea strain: DSM7271 for biotransformation under microaerobic condition. The drug concentrations were measured over 6 timepoints collected between 0 and 12 hours of incubation by liquid-chromatography-coupled mass spectrometry (LC–MS); parameters: dose 5 uM, timepoint 0, 1.5, 3, 6, 9, 12 hours; conditions: 5 µM
[19] = The drug is tested on Clostridium ramosum strain: DSM1402 for biotransformation under anaerobic condition. The drug concentrations were measured over 6 timepoints collected between 0 and 12 hours of incubation by liquid-chromatography-coupled mass spectrometry (LC–MS); parameters: dose 5 uM, timepoint 0, 1.5, 3, 6, 9, 12 hours; conditions: thomasclavelia ramosa, 5 µM
[20] = The drug is tested on the gut metagenome community of A-09 with ENA study accession number: PRJEB31790 for biotransformation under microaerobic condition. The drug concentrations were measured over 7 timepoints collected between 0 and 12 hours of incubation by liquid-chromatography-coupled mass spectrometry (LC–MS); parameters: dose 5 uM, timepoint 0, 0.75, 1.5, 3, 6, 9, 12 hours; conditions: 5 µM
[21] = The drug is tested on the gut metagenome community of A-07 with ENA study accession number: PRJEB31790 for biotransformation under anaerobic condition. The drug concentrations were measured over 7 timepoints collected between 0 and 12 hours of incubation by liquid-chromatography-coupled mass spectrometry (LC–MS); parameters: dose 5 uM, timepoint 0, 0.75, 1.5, 3, 6, 9, 12 hours; conditions: 5 µM
[22] = The drug is tested on Bacteroides thetaiotaomicron strain: DSM2079 for biotransformation under anaerobic condition. The drug concentrations were measured over 6 timepoints collected between 0 and 12 hours of incubation by liquid-chromatography-coupled mass spectrometry (LC–MS); parameters: dose 5 uM, timepoint 0, 1.5, 3, 6, 9, 12 hours; conditions: 5 µM
[23] = The drug is tested on Bacteroides xylanisolvens strain: HM 722 for biotransformation under anaerobic condition. The drug concentrations were measured over 6 timepoints collected between 0 and 12 hours of incubation by liquid-chromatography-coupled mass spectrometry (LC–MS); parameters: dose 5 uM, timepoint 0, 1.5, 3, 6, 9, 12 hours; conditions: 5 µM
[24] = The drug is tested on Actinomyces naeslundi strain: DSM43013 for biotransformation under anaerobic condition. The drug concentrations were measured over 6 timepoints collected between 0 and 12 hours of incubation by liquid-chromatography-coupled mass spectrometry (LC–MS); parameters: dose 5 uM, timepoint 0, 1.5, 3, 6, 9, 12 hours; conditions: actinomyces naeslundii, 5 µM
[25] = The drug is tested on Parabacteroides merdae strain: DSM19495 for biotransformation under anaerobic condition. The drug concentrations were measured over 6 timepoints collected between 0 and 12 hours of incubation by liquid-chromatography-coupled mass spectrometry (LC–MS); parameters: dose 5 uM, timepoint 0, 1.5, 3, 6, 9, 12 hours; conditions: 5 µM

CCC(C)(C)C(=O)O[C@H]1C[C@@H](C)C=C2C=C[C@H](C)[C@H](CC[C@@H]3C[C@@H](O)CC(=O)O3)[C@H]21 [SIMVASTATIN]
Bacterial Biotransformation [1]: Compound NOT metabolized | Bacterial Biotransformation [2]: Compound metabolized | Bacterial Biotransformation [3]: Compound NOT metabolized | Bacterial Biotransformation [4]: Compound NOT metabolized | Bacterial Biotransformation [5]: Compound metabolized | Bacterial Biotransformation [6]: Compound NOT metabolized | Bacterial Biotransformation [7]: Compound NOT metabolized | Bacterial Biotransformation [8]: Compound NOT metabolized | Bacterial Biotransformation [9]: Compound NOT metabolized | Bacterial Biotransformation [10]: Compound NOT metabolized | Bacterial Biotransformation [11]: Compound NOT metabolized | Bacterial Biotransformation [12]: Compound NOT metabolized | Bacterial Biotransformation [13]: Compound NOT metabolized | Bacterial Biotransformation [14]: Compound NOT metabolized | Bacterial Biotransformation [15]: Compound NOT metabolized | Bacterial Biotransformation [16]: Compound NOT metabolized | Bacterial Biotransformation [17]: Compound NOT metabolized | Bacterial Biotransformation [18]: Compound NOT metabolized | Bacterial Biotransformation [19]: Compound NOT metabolized | Bacterial Biotransformation [20]: Compound NOT metabolized | Bacterial Biotransformation [21]: Compound NOT metabolized | Bacterial Biotransformation [22]: Compound metabolized | Bacterial Biotransformation [23]: Compound NOT metabolized | Bacterial Biotransformation [24]: Compound NOT metabolized | Bacterial Biotransformation [25]: Compound NOT metabolized

CO[C@H]1C[C@@H]2CC[C@@H](C)[C@@](O)(O2)C(=O)C(=O)N2CCCC[C@H]2C(=O)O[C@H]([C@H](C)C[C@@H]2CC[C@@H](O)[C@H](OC)C2)CC(=O)[C@H](C)/C=C(\C)[C@@H](O)[C@@H](OC)C(=O)[C@H](C)C[C@H](C)/C=C/C=C/C=C/1C [SIROLIMUS]
Bacterial Biotransformation [1]: Compound metabolized | Bacterial Biotransformation [2]: Compound NOT metabolized | Bacterial Biotransformation [3]: Compound NOT metabolized | Bacterial Biotransformation [4]: Compound metabolized | Bacterial Biotransformation [5]: Compound metabolized | Bacterial Biotransformation [6]: Compound metabolized | Bacterial Biotransformation [7]: Compound metabolized | Bacterial Biotransformation [8]: Compound metabolized | Bacterial Biotransformation [9]: Compound metabolized | Bacterial Biotransformation [10]: Compound NOT metabolized | Bacterial Biotransformation [11]: Compound metabolized | Bacterial Biotransformation [12]: Compound NOT metabolized | Bacterial Biotransformation [13]: Compound metabolized | Bacterial Biotransformation [14]: Compound NOT metabolized | Bacterial Biotransformation [15]: Compound NOT metabolized | Bacterial Biotransformation [16]: Compound metabolized | Bacterial Biotransformation [17]: Compound NOT metabolized | Bacterial Biotransformation [18]: Compound NOT metabolized | Bacterial Biotransformation [19]: Compound NOT metabolized | Bacterial Biotransformation [20]: Compound metabolized | Bacterial Biotransformation [21]: Compound metabolized | Bacterial Biotransformation [22]: Compound NOT metabolized | Bacterial Biotransformation [23]: Compound NOT metabolized | Bacterial Biotransformation [24]: Compound metabolized | Bacterial Biotransformation [25]: Compound metabolized

C=CC[C@@H]1/C=C(\C)C[C@H](C)C[C@H](OC)[C@H]2O[C@@](O)(C(=O)C(=O)N3CCCC[C@H]3C(=O)O[C@H](/C(C)=C/[C@@H]3CC[C@@H](O)[C@H](OC)C3)[C@H](C)[C@@H](O)CC1=O)[C@H](C)C[C@@H]2OC.O [TACROLIMUS]
Bacterial Biotransformation [1]: Compound metabolized | Bacterial Biotransformation [2]: Compound NOT metabolized | Bacterial Biotransformation [3]: Compound metabolized | Bacterial Biotransformation [4]: Compound NOT metabolized | Bacterial Biotransformation [5]: Compound NOT metabolized | Bacterial Biotransformation [6]: Compound NOT metabolized | Bacterial Biotransformation [7]: Compound metabolized | Bacterial Biotransformation [8]: Compound NOT metabolized | Bacterial Biotransformation [9]: Compound NOT metabolized | Bacterial Biotransformation [10]: Compound NOT metabolized | Bacterial Biotransformation [11]: Compound metabolized | Bacterial Biotransformation [12]: Compound NOT metabolized | Bacterial Biotransformation [13]: Compound metabolized | Bacterial Biotransformation [14]: Compound NOT metabolized | Bacterial Biotransformation [15]: Compound NOT metabolized | Bacterial Biotransformation [16]: Compound NOT metabolized | Bacterial Biotransformation [17]: Compound NOT metabolized | Bacterial Biotransformation [18]: Compound NOT metabolized | Bacterial Biotransformation [19]: Compound NOT metabolized | Bacterial Biotransformation [20]: Compound metabolized | Bacterial Biotransformation [21]: Compound metabolized | Bacterial Biotransformation [22]: Compound NOT metabolized | Bacterial Biotransformation [23]: Compound NOT metabolized | Bacterial Biotransformation [24]: Compound NOT metabolized | Bacterial Biotransformation [25]: Compound NOT metabolized
